Results reported in ChEMBL document CHEMBL2331553, “Discovery of N-[[1-[2-(tert-butylcarbamoylamino)ethyl]-4-(hydroxymethyl)-4-piperidyl]methyl]-3,5-dichloro-benzamide as a selective T-type calcium channel (Cav3.2) inhibitor” (Bioorg Med Chem Lett, 2013).
≈ marks a conversion by molar mass, not a printed value.

Columns and labels:
[1] = biological target: Voltage-gated inwardly rectifying potassium channel KCNH2 (Homo sapiens, UniProt Q12809); experiment: Inhibition of human ERG expressed in CHO cells by IONWORKS assay; format: cell-based
Cytochrome P450 2D6 = Cytochrome P450 2D6 (Homo sapiens, UniProt P10635); experiment: Inhibition of human recombinant CYP2D6-mediated 7-methoxy-4(aminomethyl)-coumarine degradation; format: ADME
[2] = Intrinsic clearance in human liver microsomes at 1 mg/ml after 45 mins; format: ADME, Microsome; settings: read-out: CLH
[3] = biological target: T1, Voltage-dependent T-type calcium channel subunit alpha-1H (Homo sapiens, UniProt O95180); experiment: Inhibition of human T-type calcium channel Cav3.2 expressed in T-Rex293 cells by whole cell patch clamp assay; format: cell-based, HEK293
Liver microsomes = experiment: Drug metabolism in human liver microsomes assessed as glutathione-adduct reactive metabolite formation at 1 mg/ml after 30 mins; format: ADME, Microsome; settings: 0.5 h
[4] = Ratio of unbound concentration in brain to unbound concentration in plasma in Sprague-Dawley rat at 2 umol/kg/hr, iv administered as infusion measured after 4 hrs; format: ADME, organism-based; settings: brain and plasma (unbound concentrations), read-out: K(p,uu,brain)
[5] = biological target: T2, A-type voltage-gated potassium channel KCND3 (Homo sapiens, UniProt Q9UK17); experiment: Inhibition of human Kv4.3 channel expressed in CHO cells by IONWORKS patch clamp assay; format: cell-based
T2 sequence (Q9UK17 whole entry): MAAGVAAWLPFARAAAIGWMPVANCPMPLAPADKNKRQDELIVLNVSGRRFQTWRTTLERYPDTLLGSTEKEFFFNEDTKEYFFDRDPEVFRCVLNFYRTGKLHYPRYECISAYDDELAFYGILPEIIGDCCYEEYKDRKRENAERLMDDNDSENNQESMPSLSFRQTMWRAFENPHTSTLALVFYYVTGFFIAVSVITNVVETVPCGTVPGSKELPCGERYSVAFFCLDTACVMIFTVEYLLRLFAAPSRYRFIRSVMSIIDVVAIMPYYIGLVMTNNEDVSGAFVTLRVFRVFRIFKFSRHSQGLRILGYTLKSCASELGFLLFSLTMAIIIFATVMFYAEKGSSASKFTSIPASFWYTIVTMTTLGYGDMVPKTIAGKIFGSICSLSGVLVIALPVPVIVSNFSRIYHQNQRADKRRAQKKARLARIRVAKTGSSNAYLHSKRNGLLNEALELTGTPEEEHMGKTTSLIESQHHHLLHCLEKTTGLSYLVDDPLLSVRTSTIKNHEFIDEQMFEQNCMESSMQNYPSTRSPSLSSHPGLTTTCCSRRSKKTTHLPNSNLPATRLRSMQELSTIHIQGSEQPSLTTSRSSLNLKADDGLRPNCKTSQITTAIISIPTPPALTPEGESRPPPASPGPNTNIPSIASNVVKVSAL

[6] = biological target: T1, Voltage-dependent T-type calcium channel subunit alpha-1H; experiment: Inhibition of T-type calcium channel Cav3.2 (unknown origin) by IONWORKS assay
[7] = Clearance in beagle dog at 1 mg/kg, iv; format: ADME, organism-based, Canis lupus familiaris; design: dose 1 mg/kg, route intravenous; settings: in vivo
[8] = Solubility of the compound at pH 7.4; format: physicochemical; settings: buffer
[9] = Oral bioavailability in beagle dog at 3 mg/kg; format: ADME, organism-based, Canis lupus familiaris; settings: in vivo
Canis familiaris = experiment: Cardioprotective activity in iv dosed beagle dog atrial fibrillation model assessed as reduction in heart rate administered as infusion for over 20 mins followed by 60-mins washout period by ECG analysis relative to control; format: functional, organism-based; settings: Canis lupus familiaris
[10] = biological target: T3, Potassium/sodium hyperpolarization-activated cyclic nucleotide-gated channel 4 (Homo sapiens, UniProt Q9Y3Q4); experiment: Inhibition of human HCN4 channel expressed in CHO cells by IONWORKS patch clamp assay; format: cell-based
T3 sequence (Q9Y3Q4 whole entry): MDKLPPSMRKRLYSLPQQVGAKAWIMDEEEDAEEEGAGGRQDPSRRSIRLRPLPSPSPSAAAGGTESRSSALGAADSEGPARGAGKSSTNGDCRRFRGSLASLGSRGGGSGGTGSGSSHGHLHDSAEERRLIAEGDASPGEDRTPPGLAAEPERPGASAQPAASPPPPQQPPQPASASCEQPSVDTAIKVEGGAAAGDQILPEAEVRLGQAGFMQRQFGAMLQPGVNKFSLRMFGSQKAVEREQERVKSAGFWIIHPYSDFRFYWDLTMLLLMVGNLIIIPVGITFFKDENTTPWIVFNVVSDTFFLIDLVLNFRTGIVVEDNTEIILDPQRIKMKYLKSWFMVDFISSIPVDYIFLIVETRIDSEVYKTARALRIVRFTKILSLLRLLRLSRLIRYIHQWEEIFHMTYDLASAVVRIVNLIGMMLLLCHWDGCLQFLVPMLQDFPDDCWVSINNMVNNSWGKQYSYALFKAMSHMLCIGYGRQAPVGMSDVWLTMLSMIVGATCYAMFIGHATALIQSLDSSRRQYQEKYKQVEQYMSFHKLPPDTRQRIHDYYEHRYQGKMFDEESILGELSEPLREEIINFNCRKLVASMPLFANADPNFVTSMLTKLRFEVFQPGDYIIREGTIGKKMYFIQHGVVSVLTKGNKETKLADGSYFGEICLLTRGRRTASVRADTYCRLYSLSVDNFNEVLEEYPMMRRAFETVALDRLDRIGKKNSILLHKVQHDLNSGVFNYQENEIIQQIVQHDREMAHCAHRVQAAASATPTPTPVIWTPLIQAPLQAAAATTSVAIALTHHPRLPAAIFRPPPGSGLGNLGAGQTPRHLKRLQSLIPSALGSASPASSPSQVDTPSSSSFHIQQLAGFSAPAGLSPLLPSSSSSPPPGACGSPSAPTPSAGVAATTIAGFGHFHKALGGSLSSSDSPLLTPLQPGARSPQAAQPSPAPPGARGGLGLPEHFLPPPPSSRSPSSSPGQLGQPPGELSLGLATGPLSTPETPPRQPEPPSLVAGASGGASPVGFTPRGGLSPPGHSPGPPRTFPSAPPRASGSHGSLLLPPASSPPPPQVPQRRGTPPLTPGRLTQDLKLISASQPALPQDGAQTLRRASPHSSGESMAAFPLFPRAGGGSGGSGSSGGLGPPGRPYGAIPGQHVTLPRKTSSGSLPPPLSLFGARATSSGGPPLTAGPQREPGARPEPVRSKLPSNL

[11] = biological target: Voltage-dependent L-type calcium channel subunit alpha-1C (Homo sapiens, UniProt Q13936); experiment: Inhibition of calcium channel Cav1.2 (unknown origin) expressed in CHO cells by IONWORKS patch clamp assay; format: cell-based
[12] = biological target: Sodium channel protein type 5 subunit alpha (Homo sapiens, UniProt Q14524); experiment: Inhibition of human Nav1.5 channel expressed in CHO cells by IONWORKS patch clamp assay; format: cell-based
[13] = biological target: Voltage-gated potassium channel, IKs; KCNQ1(Kv7.1)/KCNE1(MinK) (Homo sapiens, UniProt P15382+P51787); experiment: Inhibition of human IKs channel expressed in CHO cells by IONWORKS patch clamp assay; format: cell-based
Voltage-gated potassium channel, IKs; KCNQ1(Kv7.1)/KCNE1(MinK), sequence (P51787 whole entry): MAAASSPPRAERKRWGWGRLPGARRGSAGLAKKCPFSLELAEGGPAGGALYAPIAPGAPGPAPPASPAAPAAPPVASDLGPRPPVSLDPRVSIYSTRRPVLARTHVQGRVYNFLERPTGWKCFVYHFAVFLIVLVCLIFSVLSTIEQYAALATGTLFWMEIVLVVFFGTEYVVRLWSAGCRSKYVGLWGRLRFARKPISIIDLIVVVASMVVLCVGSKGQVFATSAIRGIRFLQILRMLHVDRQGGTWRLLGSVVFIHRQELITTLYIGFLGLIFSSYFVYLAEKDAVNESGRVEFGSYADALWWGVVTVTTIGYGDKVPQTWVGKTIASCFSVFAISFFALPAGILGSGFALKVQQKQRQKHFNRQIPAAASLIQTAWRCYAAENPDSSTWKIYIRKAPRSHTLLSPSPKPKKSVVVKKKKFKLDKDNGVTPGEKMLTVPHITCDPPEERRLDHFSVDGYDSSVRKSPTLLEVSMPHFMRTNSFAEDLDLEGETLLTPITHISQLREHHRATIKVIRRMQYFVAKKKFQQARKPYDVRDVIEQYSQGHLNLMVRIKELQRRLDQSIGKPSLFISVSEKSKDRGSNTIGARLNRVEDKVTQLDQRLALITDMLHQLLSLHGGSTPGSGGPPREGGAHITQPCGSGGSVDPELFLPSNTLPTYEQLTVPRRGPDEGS

Cytochrome P450 2D6, sequence (P10635 whole entry): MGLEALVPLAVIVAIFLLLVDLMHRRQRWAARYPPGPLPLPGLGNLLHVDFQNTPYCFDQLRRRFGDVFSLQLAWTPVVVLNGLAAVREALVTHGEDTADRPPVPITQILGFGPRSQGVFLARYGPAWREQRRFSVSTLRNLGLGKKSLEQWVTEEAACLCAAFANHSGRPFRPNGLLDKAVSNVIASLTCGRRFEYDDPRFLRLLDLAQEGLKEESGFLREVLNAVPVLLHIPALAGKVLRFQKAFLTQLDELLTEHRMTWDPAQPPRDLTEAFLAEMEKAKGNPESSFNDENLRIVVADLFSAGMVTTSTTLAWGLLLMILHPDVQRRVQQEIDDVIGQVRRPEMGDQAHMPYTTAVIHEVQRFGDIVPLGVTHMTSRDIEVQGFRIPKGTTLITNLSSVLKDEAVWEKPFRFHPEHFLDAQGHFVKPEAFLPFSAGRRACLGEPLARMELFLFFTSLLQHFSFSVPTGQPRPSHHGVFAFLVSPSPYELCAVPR
T1 sequence (O95180 whole entry): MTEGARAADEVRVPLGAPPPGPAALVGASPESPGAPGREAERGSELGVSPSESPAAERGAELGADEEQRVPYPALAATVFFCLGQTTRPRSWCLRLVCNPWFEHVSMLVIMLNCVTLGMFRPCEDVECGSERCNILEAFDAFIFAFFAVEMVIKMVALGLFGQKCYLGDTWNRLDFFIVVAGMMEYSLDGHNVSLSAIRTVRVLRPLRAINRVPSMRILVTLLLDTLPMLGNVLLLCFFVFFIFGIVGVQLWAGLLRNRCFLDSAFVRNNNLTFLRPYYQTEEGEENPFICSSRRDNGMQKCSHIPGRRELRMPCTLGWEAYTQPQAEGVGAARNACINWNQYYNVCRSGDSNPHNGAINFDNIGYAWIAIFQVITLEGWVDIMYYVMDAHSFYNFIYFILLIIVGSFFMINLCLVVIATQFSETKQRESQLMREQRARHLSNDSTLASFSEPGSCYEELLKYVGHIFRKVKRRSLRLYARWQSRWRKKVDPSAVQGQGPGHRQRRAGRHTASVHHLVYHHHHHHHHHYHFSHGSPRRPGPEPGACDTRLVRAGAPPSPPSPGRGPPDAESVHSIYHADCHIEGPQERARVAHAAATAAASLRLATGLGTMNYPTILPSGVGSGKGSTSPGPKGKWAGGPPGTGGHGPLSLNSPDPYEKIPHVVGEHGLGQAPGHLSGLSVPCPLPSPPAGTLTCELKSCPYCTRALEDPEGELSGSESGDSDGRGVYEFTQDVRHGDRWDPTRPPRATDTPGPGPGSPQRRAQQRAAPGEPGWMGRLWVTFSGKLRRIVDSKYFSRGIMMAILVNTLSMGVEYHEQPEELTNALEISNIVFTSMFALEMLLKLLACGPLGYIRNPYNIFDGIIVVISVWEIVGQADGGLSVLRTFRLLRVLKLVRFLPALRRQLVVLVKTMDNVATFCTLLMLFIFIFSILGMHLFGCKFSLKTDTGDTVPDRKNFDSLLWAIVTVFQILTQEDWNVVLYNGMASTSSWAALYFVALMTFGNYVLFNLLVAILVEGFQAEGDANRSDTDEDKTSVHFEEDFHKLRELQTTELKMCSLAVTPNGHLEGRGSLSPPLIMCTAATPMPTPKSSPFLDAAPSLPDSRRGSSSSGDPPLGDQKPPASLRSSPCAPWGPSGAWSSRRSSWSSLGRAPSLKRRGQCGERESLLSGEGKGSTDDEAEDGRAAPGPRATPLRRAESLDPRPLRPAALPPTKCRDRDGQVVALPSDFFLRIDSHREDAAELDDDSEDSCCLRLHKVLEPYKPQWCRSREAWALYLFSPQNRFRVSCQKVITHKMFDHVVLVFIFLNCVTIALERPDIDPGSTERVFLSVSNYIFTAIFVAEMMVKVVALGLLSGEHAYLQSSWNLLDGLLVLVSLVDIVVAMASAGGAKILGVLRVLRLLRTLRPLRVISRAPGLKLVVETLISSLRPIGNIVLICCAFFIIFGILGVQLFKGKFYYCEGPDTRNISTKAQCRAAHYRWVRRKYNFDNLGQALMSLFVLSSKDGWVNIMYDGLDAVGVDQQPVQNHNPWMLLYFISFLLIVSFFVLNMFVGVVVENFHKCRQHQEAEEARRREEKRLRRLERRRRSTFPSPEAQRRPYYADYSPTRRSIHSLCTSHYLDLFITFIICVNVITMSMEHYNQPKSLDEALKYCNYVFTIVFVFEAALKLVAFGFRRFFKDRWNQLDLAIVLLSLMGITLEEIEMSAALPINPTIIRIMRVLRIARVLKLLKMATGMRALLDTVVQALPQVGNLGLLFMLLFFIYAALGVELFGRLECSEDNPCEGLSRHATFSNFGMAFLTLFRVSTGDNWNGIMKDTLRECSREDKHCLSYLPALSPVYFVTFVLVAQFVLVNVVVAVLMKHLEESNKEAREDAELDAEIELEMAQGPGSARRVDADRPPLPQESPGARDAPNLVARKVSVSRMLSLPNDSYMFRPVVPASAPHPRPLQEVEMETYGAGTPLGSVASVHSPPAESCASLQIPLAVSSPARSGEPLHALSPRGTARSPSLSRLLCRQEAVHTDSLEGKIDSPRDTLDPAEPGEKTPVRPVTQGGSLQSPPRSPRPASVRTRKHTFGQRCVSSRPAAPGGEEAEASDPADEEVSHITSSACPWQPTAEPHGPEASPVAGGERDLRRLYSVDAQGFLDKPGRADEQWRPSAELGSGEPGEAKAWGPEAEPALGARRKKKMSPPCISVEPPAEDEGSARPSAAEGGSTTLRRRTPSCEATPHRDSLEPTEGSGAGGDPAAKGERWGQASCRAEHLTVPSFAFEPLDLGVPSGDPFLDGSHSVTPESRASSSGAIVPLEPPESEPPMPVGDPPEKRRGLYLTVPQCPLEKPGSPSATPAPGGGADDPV
Voltage-gated inwardly rectifying potassium channel KCNH2, sequence (Q12809 whole entry): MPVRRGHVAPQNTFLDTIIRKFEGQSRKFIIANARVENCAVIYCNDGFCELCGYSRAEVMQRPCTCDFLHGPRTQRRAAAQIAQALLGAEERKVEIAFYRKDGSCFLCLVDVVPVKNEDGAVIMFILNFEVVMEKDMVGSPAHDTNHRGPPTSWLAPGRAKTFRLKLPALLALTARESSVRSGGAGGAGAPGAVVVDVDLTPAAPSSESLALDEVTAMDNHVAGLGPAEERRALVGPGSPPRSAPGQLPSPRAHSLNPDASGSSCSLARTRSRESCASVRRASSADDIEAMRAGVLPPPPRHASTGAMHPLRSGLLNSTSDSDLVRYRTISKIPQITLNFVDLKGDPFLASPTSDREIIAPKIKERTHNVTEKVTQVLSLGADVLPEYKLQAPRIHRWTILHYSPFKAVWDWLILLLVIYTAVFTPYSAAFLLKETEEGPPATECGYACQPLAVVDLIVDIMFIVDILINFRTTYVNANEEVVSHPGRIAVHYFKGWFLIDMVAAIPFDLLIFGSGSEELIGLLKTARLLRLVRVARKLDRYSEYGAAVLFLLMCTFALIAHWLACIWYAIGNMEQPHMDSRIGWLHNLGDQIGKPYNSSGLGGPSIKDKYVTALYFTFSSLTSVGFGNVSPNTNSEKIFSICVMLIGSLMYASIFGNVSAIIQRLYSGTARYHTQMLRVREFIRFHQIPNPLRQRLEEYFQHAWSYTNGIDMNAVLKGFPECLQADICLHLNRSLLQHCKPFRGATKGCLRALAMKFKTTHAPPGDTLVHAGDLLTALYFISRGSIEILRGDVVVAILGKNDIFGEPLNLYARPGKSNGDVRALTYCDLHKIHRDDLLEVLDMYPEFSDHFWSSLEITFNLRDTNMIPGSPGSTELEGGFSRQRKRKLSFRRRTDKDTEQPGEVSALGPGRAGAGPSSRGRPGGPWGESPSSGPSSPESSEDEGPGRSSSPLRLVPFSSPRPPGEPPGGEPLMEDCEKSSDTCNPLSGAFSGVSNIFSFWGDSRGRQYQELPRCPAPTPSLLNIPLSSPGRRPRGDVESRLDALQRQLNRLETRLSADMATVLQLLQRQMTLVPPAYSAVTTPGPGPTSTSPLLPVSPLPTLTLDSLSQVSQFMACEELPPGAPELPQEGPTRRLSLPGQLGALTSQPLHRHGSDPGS

| Structure (SMILES) | IC50 [1] [nM] | IC50 (Cytochrome P450 2D6) [nM] | microsomal CLint [2] [µL/min/mg] | IC50 [3] [nM] | Drug metabolism (Liver microsomes) | further results |
| --- | --- | --- | --- | --- | --- | --- |
| CC(C)(C)NC(=O)NCCN1CCOC(CNC(=O)c2cc(Cl)cc(Cl)c2)C1 (configuration not stated) | > 33000 | > 20000 | 47 | 3300 | Active |  |
| CC(C)(C)NC(=O)NCCN1CCCC(NC(=O)c2cc(Cl)cc(Cl)c2)C1 (configuration not stated) | 4100 | 8300 | 48 | 500 | Active |  |
| CC(C)(C)NCCN1CCN(CC(=O)NC23CC4CC(CC(C4)C2)C3)CC1 |  |  |  | 4900 |  |  |
| CC(C)(C)NC(=O)NCCN1CCCC(CNC(=O)c2cc(Cl)cc(Cl)c2)C1 (configuration not stated) |  | 1600 | 16 | 500 | Not Active |  |
| COCC(=O)O[C@]1(CCN(C)CCCc2nc3ccccc3[nH]2)CCc2cc(F)ccc2[C@@H]1C(C)C [MIBEFRADIL] |  | 63 | 56.5 |  | Active |  |
| CC(C)(C)C(=O)NCCCN1CCN(CC(=O)NC23CC4CC(CC(C4)C2)C3)CC1 |  |  |  | 1300 |  |  |
| CC(C)(C)S(=O)(=O)CCCN1CCN(CC(=O)NC23CC4CC(CC(C4)C2)C3)CC1 |  |  |  | 2400 |  | Kp uu at 4 h [4]: 0.3 |
| CC(C)(C)NC(=O)NCCN1CCC(CO)(CNC(=O)c2cc(Cl)cc(Cl)c2)CC1 | > 33000 | 13000 | 7 | 600 | Not Active | IC50 [5]: > 33000 nM; IC50 [6]: 1200 nM; clearance [7]: 17 mL/min/kg; solubility [8]: 460 µM (≈ 211 µg/mL); bioavailability [9]: 22%; Activity (Canis familiaris): Dose-dependent effect; IC50 [10]: > 33000 nM; IC50 [11]: > 31600 nM; IC50 [12]: > 33000 nM; IC50 [13]: > 33000 nM |
| CC(C)(C)NC(=O)NCCN1CCC(NC(=O)c2cc(Cl)cc(Cl)c2)C1 (configuration not stated) | 6600 | 2600 | 15 | 800 | Active |  |
| CC(C)(C)C(=O)NCCN1CCN(CC(=O)NC23CC4CC(CC(C4)C2)C3)CC1 |  |  |  | 3000 |  |  |
| CC(C)(C)CS(=O)(=O)NCCN1CCN(CC(=O)NC23CC4CC(CC(C4)C2)C3)CC1 |  |  |  | 900 |  | Kp uu at 4 h [4]: 0.3 |
| CC(C)(C)NC(=O)NCCN1CCC(CNC(=O)c2cc(Cl)cc(Cl)c2)CC1 | 13000 | 3400 | < 5 | 500 | Not Active |  |
| CC(C)(C)OC(=O)NCCN1CCN(CC(=O)NC23CC4CC(CC(C4)C2)C3)CC1 |  |  |  | 1200 |  |  |
| CC(C)(C)NC(=O)NCCN1CCN(CC(=O)NC23CC4CC(CC(C4)C2)C3)CC1 | > 33000 | > 20000 | 100 | 500 |  | Kp uu at 4 h [4]: 0.02 |
| CC(C)(C)NC(=O)NCCN1CCC(CNC(=O)c2cc(Cl)cc(Cl)c2)C1 (configuration not stated) | 5800 | 1000 | < 5 | 400 | Active |  |
| CC(C)(C)NC(=O)NCCCN1CCN(CC(=O)NC23CC4CC(CC(C4)C2)C3)CC1 |  |  |  | 1200 |  |  |
| CC(C)(C)NC(=O)NCCN1CCN(CC(=O)Nc2cc(Cl)cc(Cl)c2)CC1 | 1600 | 8000 | 29 | 300 |  |  |
| CC(C)(C)NC(=O)NCCN1CCC(O)(CNC(=O)c2cc(Cl)cc(Cl)c2)CC1 | > 33000 | 14000 | 6 | 600 | Active |  |
| CC(C)(C)NC(=O)CN1CCN(CC(=O)NC23CC4CC(CC(C4)C2)C3)CC1 |  |  |  | 1000 |  | Kp uu at 4 h [4]: 0.4 |
| CC(C)(C)NC(=O)NCCN1CC(NC(=O)c2cc(Cl)cc(Cl)c2)C1 |  | 4500 | 4 | 800 | Active |  |
| O=C(CN1CCN(CCC2CCOCC2)CC1)NC12CC3CC(CC(C3)C1)C2 |  |  |  |  |  | Kp uu at 4 h [4]: 1.2 |
